In US20130029928A1 (priority 2010, published 2013):
Where two headings read alike, the source gives them in different places.

Assay: Phase I study CXR1002-001: plasma pharmacokinetics (LC-MS/MS)
Assay type: in vivo, human
Settings: human, plasma, oral, person, plasma, read-out: Concentration; for concentration at 168 h: 168 hr (Day 8); for concentration at 192 h: 192 hr (Day 9); for concentration at 336 h: 336 hr (Day 15); for concentration at 360 h: 360 hr (Day 16); for concentration at 504 h: 504 hr (Day 22); for concentration at 528 h: 528 hr (Day 23); for concentration at 672 h: 672 hr (Day 29); for concentration at 696 h: 696 hr (Day 30); for concentration at 840 h: 840 hr (Day 36); for concentration at 24 h: 24 hr (Day 2); for concentration at 864 h: 864 hr (Day 37)
Text: PK samples, PD (fasting) samples, blood glucose, and blood triglyceride samples, were taken over a 6-week period.
Dose limiting toxicity (DLT) will be based on the toxicity assessments over the first 3-week period of the repeat dosing schedule. PK samples (single blood sample) were taken on the following basis: • Every 6 weeks during the repeat dosing phase • If dosing is interrupted or stopped, samples will be taken at intervals according to patient convenience • PK sampling for safety evaluation may take place at any time, as clinically indicated
Plasma samples were collected after the single 50 mg dose at the following timepoints: Pre-dose, and then 0.25, 0.5, 0.75, 1, 1.5, 2, 3, 4, 6, 24, 48, and 72 hours after administration and then once weekly at weeks 2, 3, 4, 5, and 6 (days 8, 15, 22, 29, and 36). For patients treated with the weekly repeat dose, plasma samples were collected at the following timepoints: Pre-dose and then 2, 3, 4 and 24 hours after administration for a total of 6 weeks. Thereafter a single sample was collected every 6 weeks for monitoring of exposure during long term treatment. Plasma samples were processed at site and stored at −80° C. prior to batch shipment to the analytical laboratory.

In the case of O=C(O)C(F)(F)C(F)(F)C(F)(F)C(F)(F)C(F)(F)C(F)(F)C(F)(F)F [CXR1002], the concentration at 168 h (750 mg, Patient 027, 750 mg) is reported as 168 µM, the concentration at 170 h (750 mg, Patient 027, 750 mg) is reported as 235 µM and the concentration at 171 h (750 mg, Patient 027, 750 mg) is reported as 318 µM. The concentration at 172 h (750 mg, Patient 027, 750 mg) was 344 µM, the concentration at 192 h (750 mg, Patient 027, 750 mg) was 411 µM and the concentration at 336 h (750 mg, Patient 027, 750 mg) was 366 µM. It also gave a concentration at 338 h (750 mg, Patient 027, 750 mg) of 384 µM, a concentration at 339 h (750 mg, Patient 027, 750 mg) of 412 µM and a concentration at 340 h (750 mg, Patient 027, 750 mg) of 451 µM. It also gave a concentration at 360 h (750 mg, Patient 027, 750 mg) of 569 µM, a concentration at 504 h (750 mg, Patient 027, 750 mg) of 476 µM and a concentration at 506 h (750 mg, Patient 027, 750 mg) of 658 µM. It also gave a concentration at 507 h (750 mg, Patient 027, 750 mg) of 669 µM, a concentration at 508 h (750 mg, Patient 027, 750 mg) of 671 µM and a concentration at 528 h (750 mg, Patient 027, 750 mg) of 720 µM. For the same compound, the concentration at 672 h (750 mg, Patient 027, 750 mg) was 606 µM, the concentration at 674 h (750 mg, Patient 027, 750 mg) was 769 µM and the concentration at 675 h (750 mg, Patient 027, 750 mg) was 811 µM. The concentration at 676 h (750 mg, Patient 027, 750 mg) was 757 µM, the concentration at 696 h (750 mg, Patient 027, 750 mg) was 803 µM and the concentration at 840 h (750 mg, Patient 027, 750 mg) was 673 µM. The concentration at 2 h (750 mg, Patient 028, 750 mg) was 207 µM, the concentration at 3 h (750 mg, Patient 028, 750 mg) was 174 µM and the concentration at 4 h (750 mg, Patient 028, 750 mg) was 160 µM. The concentration at 24 h (750 mg, Patient 028, 750 mg) was 160 µM, the concentration at 168 h (750 mg, Patient 028, 750 mg) was 161 µM and the concentration at 170 h (750 mg, Patient 028, 750 mg) was 321 µM. It also gave a concentration at 171 h (750 mg, Patient 028, 750 mg) of 301 µM, a concentration at 172 h (750 mg, Patient 028, 750 mg) of 273 µM and a concentration at 192 h (750 mg, Patient 028, 750 mg) of 295 µM. The concentration at 336 h (750 mg, Patient 028, 750 mg) was 288 µM, the concentration at 338 h (750 mg, Patient 028, 750 mg) was 473 µM and the concentration at 339 h (750 mg, Patient 028, 750 mg) was 396 µM. For the same compound, the concentration at 340 h (750 mg, Patient 028, 750 mg) was 406 µM, the concentration at 360 h (750 mg, Patient 028, 750 mg) was 450 µM and the concentration at 504 h (750 mg, Patient 028, 750 mg) was 467 µM. For the same compound, the concentration at 506 h (750 mg, Patient 028, 750 mg) was 582 µM, the concentration at 507 h (750 mg, Patient 028, 750 mg) was 490 µM and the concentration at 508 h (750 mg, Patient 028, 750 mg) was 581 µM. The concentration at 528 h (750 mg, Patient 028, 750 mg) was 655 µM, the concentration at 672 h (750 mg, Patient 028, 750 mg) was 522 µM and the concentration at 674 h (750 mg, Patient 028, 750 mg) was 710 µM. For the same compound, the concentration at 675 h (750 mg, Patient 028, 750 mg) was 713 µM, the concentration at 676 h (750 mg, Patient 028, 750 mg) was 700 µM and the concentration at 696 h (750 mg, Patient 028, 750 mg) was 758 µM. For the same compound, the concentration at 840 h (750 mg, Patient 028, 750 mg) was 682 µM, the concentration at 842 h (750 mg, Patient 028, 750 mg) was 824 µM and the concentration at 843 h (750 mg, Patient 028, 750 mg, 843 hr) was 792 µM. The concentration at 844 h (750 mg, Patient 028, 750 mg, 844 hr) was 853 µM, the concentration at 864 h (750 mg, Patient 028, 750 mg) was 775 µM and the concentration at 2 h (950 mg, Patient 029, 950 mg) was 219 µM. For the same compound, the concentration at 3 h (950 mg, Patient 029, 950 mg) was 251 µM, the concentration at 4 h (950 mg, Patient 029, 950 mg) was 307 µM and the concentration at 24 h (950 mg, Patient 029, 950 mg) was 353 µM. The concentration at 168 h (950 mg, Patient 029, 950 mg) was 289 µM, the concentration at 170 h (950 mg, Patient 029, 950 mg) was 604 µM and the concentration at 171 h (950 mg, Patient 029, 950 mg) was 602 µM. The concentration at 172 h (950 mg, Patient 029, 950 mg) was 556 µM, the concentration at 192 h (950 mg, Patient 029, 950 mg) was 606 µM and the concentration at 336 h (950 mg, Patient 029, 950 mg) was 439 µM. The concentration at 338 h (950 mg, Patient 029, 950 mg) was 704 µM, the concentration at 339 h (950 mg, Patient 029, 950 mg) was 777 µM and the concentration at 340 h (950 mg, Patient 029, 950 mg) was 674 µM. It also gave a concentration at 360 h (950 mg, Patient 029, 950 mg) of 896 µM, a concentration at 504 h (950 mg, Patient 029, 950 mg) of 400 µM and a concentration at 506 h (950 mg, Patient 029, 950 mg) of 897 µM. It also gave a concentration at 507 h (950 mg, Patient 029, 950 mg) of 741 µM, a concentration at 508 h (950 mg, Patient 029, 950 mg) of 701 µM and a concentration at 528 h (950 mg, Patient 029, 950 mg) of 781 µM. For the same compound, the concentration at 672 h (950 mg, Patient 029, 950 mg) was 492 µM, the concentration at 674 h (950 mg, Patient 029, 950 mg) was 841 µM and the concentration at 675 h (950 mg, Patient 029, 950 mg) was 972 µM. The concentration at 676 h (950 mg, Patient 029, 950 mg) was 812 µM, the concentration at 696 h (950 mg, Patient 029, 950 mg) was 949 µM and the concentration at 840 h (950 mg, Patient 029, 950 mg) was 777 µM. For the same compound, the concentration at 842 h (950 mg, Patient 029, 950 mg) was 793 µM, the concentration at 864 h (950 mg, Patient 029, 950 mg) was 1040 µM and the concentration at 3 h (950 mg, Patient 030, 950 mg) was 219 µM. The concentration at 4 h (950 mg, Patient 030, 950 mg) was 333 µM, the concentration at 24 h (950 mg, Patient 030, 950 mg) was 214 µM and the concentration at 2 h (950 mg, Patient 031, 950 mg) was 267 µM. For the same compound, the concentration at 3 h (950 mg, Patient 031, 950 mg) was 338 µM, the concentration at 4 h (950 mg, Patient 031, 950 mg) was 336 µM and the concentration at 24 h (950 mg, Patient 031, 950 mg) was 348 µM. It also gave a concentration at 168 h (950 mg, Patient 031, 950 mg) of 237 µM, a concentration at 170 h (950 mg, Patient 031, 950 mg) of 513 µM and a concentration at 171 h (950 mg, Patient 031, 950 mg) of 463 µM. For the same compound, the concentration at 172 h (950 mg, Patient 031, 950 mg) was 427 µM, the concentration at 192 h (950 mg, Patient 031, 950 mg) was 516 µM and the concentration at 336 h (950 mg, Patient 031, 950 mg) was 554 µM. It also gave a concentration at 338 h (950 mg, Patient 031, 950 mg) of 668 µM, a concentration at 339 h (950 mg, Patient 031, 950 mg) of 715 µM and a concentration at 340 h (950 mg, Patient 031, 950 mg) of 697 µM. The concentration at 360 h (950 mg, Patient 031, 950 mg) was 800 µM, the concentration at 504 h (950 mg, Patient 031, 950 mg) was 755 µM and the concentration at 506 h (950 mg, Patient 031, 950 mg) was 794 µM. The concentration at 507 h (950 mg, Patient 031, 950 mg) was 861 µM, the concentration at 508 h (950 mg, Patient 031, 950 mg) was 998 µM and the concentration at 528 h (950 mg, Patient 031, 950 mg) was 958 µM. The concentration at 672 h (950 mg, Patient 031, 950 mg) was 813 µM, the concentration at 674 h (950 mg, Patient 031, 950 mg) was 921 µM and the concentration at 675 h (950 mg, Patient 031, 950 mg) was 882 µM. For the same compound, the concentration at 676 h (950 mg, Patient 031, 950 mg) was 938 µM, the concentration at 696 h (950 mg, Patient 031, 950 mg) was 1030 µM and the concentration at 2 h (950 mg, Patient 032, 950 mg) was 292 µM. For the same compound, the concentration at 3 h (950 mg, Patient 032, 950 mg) was 191 µM, the concentration at 4 h (950 mg, Patient 032, 950 mg) was 231 µM and the concentration at 24 h (950 mg, Patient 032, 950 mg) was 161 µM. For the same compound, the concentration at 168 h (950 mg, Patient 032, 950 mg) was 192 µM, the concentration at 170 h (950 mg, Patient 032, 950 mg) was 439 µM and the concentration at 171 h (950 mg, Patient 032, 950 mg) was 478 µM. For the same compound, the concentration at 172 h (950 mg, Patient 032, 950 mg) was 517 µM, the concentration at 192 h (950 mg, Patient 032, 950 mg) was 495 µM and the concentration at 2 h (1000 mg, Patient 040, 1000 mg) was 188 µM. For the same compound, the concentration at 3 h (1000 mg, Patient 040, 1000 mg) was 168 µM.
